The record followed here is US20070219186A1, “Pyrazolo[1,5-A]pyrimidine derivatives and methods of use thereof” (priority 2006, published 2007).

Molecules are shown by their SMILES. Read-outs that look alike come from different tables or passages of the source.

For one series, the target named is T1, human B-Raf (Homo sapiens, UniProt P15056).
T1 construct: Flag; GST; made in house; host or cells: Sf9 insect cells (B-Raf); E. coli (MEK1-GST)
In words: B-Raf Kinase to MEK1 ELISA. As to conditions: for inhibition at 10 µM: read-out: % Inhib./10 uM. The format is biochemical. The method, boiled down: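 Flag/GST-tagged human B-Raf (Sf9, ~20 ng/point) phosphorylates non-active GST-MEK1 (50 nM final) with ATP and MgCl2 in MOPS pH 7.2 buffer, 60 min at RT. Product is captured on anti-GST plates; MEK1 pSer217/221 is read by phospho-antibody plus europium conjugate (DELFIA).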

Setting [1] is: median, cpd concentrations from 10 μM to 30 nM in half log dilutions, read-out: Median IC50.

T1 sequence (P15056 whole entry): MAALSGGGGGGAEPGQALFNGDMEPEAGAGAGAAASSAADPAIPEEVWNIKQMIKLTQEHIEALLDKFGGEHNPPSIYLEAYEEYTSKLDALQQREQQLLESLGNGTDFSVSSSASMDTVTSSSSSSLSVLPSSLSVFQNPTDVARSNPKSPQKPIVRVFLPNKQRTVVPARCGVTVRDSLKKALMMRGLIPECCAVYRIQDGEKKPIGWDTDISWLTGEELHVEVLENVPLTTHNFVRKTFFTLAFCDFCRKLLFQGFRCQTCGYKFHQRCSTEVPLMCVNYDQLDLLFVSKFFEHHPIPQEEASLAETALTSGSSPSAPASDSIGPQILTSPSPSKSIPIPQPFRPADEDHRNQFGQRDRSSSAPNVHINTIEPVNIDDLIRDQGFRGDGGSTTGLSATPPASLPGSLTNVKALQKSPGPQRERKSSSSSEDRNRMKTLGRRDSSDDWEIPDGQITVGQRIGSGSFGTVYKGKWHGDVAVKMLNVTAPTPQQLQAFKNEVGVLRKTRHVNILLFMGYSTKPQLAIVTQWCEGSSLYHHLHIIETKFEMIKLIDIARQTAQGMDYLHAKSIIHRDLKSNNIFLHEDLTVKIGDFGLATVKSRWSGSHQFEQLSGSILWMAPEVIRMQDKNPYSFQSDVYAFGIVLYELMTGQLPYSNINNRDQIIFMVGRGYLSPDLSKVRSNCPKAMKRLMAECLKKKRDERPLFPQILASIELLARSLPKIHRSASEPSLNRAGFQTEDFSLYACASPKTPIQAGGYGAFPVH

As to `CN1CCC(c2cnn3c(-c4cccc(NC(=O)c5cccc(C(F)(F)F)c5)c4)ccnc23)CC1` [Example 309, N-{3-[3-(1-methylpiperidin-4-yl)pyrazolo[1,5-a]pyrimidin-7-yl]phenyl}-3-(trifluoromethyl)benzamide], the melting point (as a rule, the temperature of the solid-liquid transition) is 183 to 185 °C. Further, the IC50 (as a rule, the midpoint of a concentration-inhibition curve) at human B-Raf (setting [1]) was found to be 1330 nM. The inhibition at 10 µM at human B-Raf turned out to be 63%.
The matching figures for `CN1CC=C(c2cnn3c(-c4cccc(NC(=O)c5cccc(C(F)(F)F)c5)c4)ccnc23)CC1` [Example 306, N-{3-[3-(1-methyl-1,2,3,6-tetrahydropyridin-4-yl)pyrazolo[1,5-a]pyrimidin-7-yl]phenyl}-3-(trifluoromethyl)benzamide]: 163 to 165 °C, 851 nM and 68%.
Take `O=C(Nc1cccc(-c2ccnc3c(C(=O)NCCCn4ccnc4)cnn23)c1)c1cccc(C(F)(F)F)c1` [Example 55, N-[3-(1H-imidazol-1-yl)propyl]-7-(3-{[3-(trifluoromethyl)benzoyl]amino}phenyl)pyrazolo[1,5-a]pyrimidine-3-carboxamide]: the IC50 on human B-Raf (setting [1]) is 2100 nM. Also, the inhibition at 10 µM on human B-Raf is 70%.
As to `CCOC(=O)c1cnn2c(-c3cccc(NC(=O)Cc4ccc(Cl)c(Cl)c4)c3)ccnc12` [Example 95, ethyl 7-(3-{[(3,4-dichlorophenyl)acetyl]amino}phenyl)pyrazolo[1,5-a]pyrimidine-3-carboxylate], on human B-Raf (setting [1]), the IC50 is more than 10000 nM. The inhibition at 10 µM at human B-Raf came to 39%.
For `CCOC(=O)c1cnn2c(-c3cccc(NC(=O)c4ccccc4)c3)ccnc12` [Example 3, Pyrazolo[1,5-a]pyrimidine-3-carboxylic acid, 7-[3-(benzoylamino)phenyl]-, ethyl ester], the IC50 on human B-Raf (setting [1]) was more than 20000 nM. Also, the inhibition at 10 µM at human B-Raf came to 4%.
On the same counts, the results for `CC(C)(C)CC(=O)Nc1cccc(-c2ccnc3cc(-c4ccncc4)nn23)c1` [Example 240, 3,3-dimethyl-N-[3-(2-pyridin-4-ylpyrazolo[1,5-a]pyrimidin-7-yl)phenyl]butanamide] are more than 10000 nM and 10%.
Regarding `CN(CCCN)c1cc(-c2cc3nccc(-c4cccc(NC(=O)c5cccc(C(F)(F)F)c5)c4)n3n2)ccn1` [Example 269, N-[3-(2-{2-[(3-aminopropyl)(methyl)amino]pyridin-4-yl}pyrazolo[1,5-a]pyrimidin-7-yl)phenyl]-3-(trifluoromethyl)benzamide], the IC50 at human B-Raf (setting [1]) came out at 2790 nM. For the same compound, the inhibition at 10 µM on human B-Raf came out at 78%.
As to `O=C(Cc1c[nH]cn1)Nc1ccc(-c2cnn3c(-c4cccc(NC(=O)c5cccc(C(F)(F)F)c5)c4)ccnc23)cc1` [Example 232, N-[3-(3-{4-[(1H-imidazol-4-ylacetyl)amino]phenyl}pyrazolo[1,5-a]pyrimidin-7-yl)phenyl]-3-(trifluoromethyl)benzamide], the IC50 at human B-Raf (setting [1]) stood at 174 nM. Further, the inhibition at 10 µM at human B-Raf came out at 99%.
On the same counts, the results for `CCOC(=O)c1cnn2c(-c3cccc(NC(=O)Nc4ccc5c(c4)OCO5)c3)ccnc12` [Example 245, ethyl7-(3-{[(1,3-benzodioxol-5-ylamino)carbonyl]amino}phenyl)pyrazolo[1,5-a]pyrimidine-3-carboxylate] are more than 10000 nM and 18%.
`O=C(Nc1cccc(-c2ccnc3c(-c4cccnc4)cnn23)c1)c1cccc(C(F)(F)F)c1` [Example 155, N-[3-(3-pyridin-3-ylpyrazolo[1,5-a]pyrimidin-7-yl)phenyl]-3-(trifluoromethyl)benzamide]: on human B-Raf, inhibition was half-maximal at 95 nM (IC50) and the inhibition at 10 µM turned out to be 103%.
As to `CCOC(=O)c1cnn2c(-c3cccc(NC(=O)c4cccc(Br)c4)c3)ccnc12` [Example 4, ethyl 7-{3-[(3-bromobenzoyl)amino]phenyl}pyrazolo[1,5-a]pyrimidine-3-carboxylate], the IC50 on human B-Raf (setting [1]) was more than 10000 nM. Also, the inhibition at 10 µM on human B-Raf was 4%.
As for `CCOC(=O)c1cnn2c(-c3cccc(NC(=O)c4ccc(-c5cc(C(F)(F)F)nn5C)s4)c3)ccnc12` [Example 224, ethyl7-{3-[({5-[1-methyl-3-(trifluoromethyl)-1H-pyrazol-5-yl]-2-thienyl}carbonyl)amino]phenyl}pyrazolo[1,5-a]pyrimidine-3-carboxylate], the IC50 on human B-Raf (setting [1]) was more than 10000 nM. Also, on human B-Raf, the inhibition at 10 µM turned out to be 39%.
`CN(C)CC#Cc1cnn2c(-c3cccc(NC(=O)c4cccc(C(F)(F)F)c4)c3)ccnc12` [Example 205, N-(3-{3-[3-(dimethylamino)prop-1-yn-1-yl]pyrazolo[1,5-a]pyrimidin-7-yl}phenyl)-3-(trifluoromethyl)benzamide]: the IC50 at human B-Raf (setting [1]) is 1730 nM. Also, the inhibition at 10 µM on human B-Raf turned out to be 81%.
The matching figures for `CCOC(=O)c1cnn2c(-c3ccc(Cl)c(NC(=O)c4cccc(C(F)(F)F)c4)c3)ccnc12` [Example 86, ethyl 7-(4-chloro-3-{[3-(trifluoromethyl)benzoyl]amino}phenyl)pyrazolo[1,5-a]pyrimidine-3-carboxylate]: more than 10000 nM and 18%.
On the same counts, the results for `CCOC(=O)c1cnn2c(-c3cccc(NC(=O)Nc4nc5ccc(Cl)cc5s4)c3)ccnc12` [Example 246, ethyl7-[3-({[(6-chloro-1,3-benzothiazol-2-yl)amino]carbonyl}amino)phenyl]pyrazolo[1,5-a]pyrimidine-3-carboxylate] are more than 10000 nM and 34%.
In the case of `COc1ccc(C(=O)Nc2cccc(-c3ccnc4c(Br)cnn34)c2)cc1C(F)(F)F` [Example 162, N-[3-(3-bromopyrazolo[1,5-a]pyrimidin-7-yl)phenyl]-4-methoxy-3-(trifluoromethyl)benzamide], on human B-Raf, the IC50 was found to be 2100 nM and the inhibition at 10 µM was found to be 75%.
With `O=C(Nc1cccc(-c2ccnc3cc(-c4ccncc4)nn23)c1)c1cc(Cl)ccc1Br` [Example 241, 2-bromo-5-chloro-N-[3-(2-pyridin-4-ylpyrazolo[1,5-a]pyrimidin-7-yl)phenyl]benzamide], the IC50 on human B-Raf (setting [1]) was more than 10000 nM. The inhibition at 10 µM at human B-Raf is 34%.
As for `COc1cccc(C(=O)Nc2cccc(-c3ccnc4cc(-c5ccncc5)nn34)c2)c1` [Example 146, 3-methoxy-N-[3-(2-pyridin-4-ylpyrazolo[1,5-a]pyrimidin-7-yl)phenyl]benzamide], the IC50 against human B-Raf came to 4000 nM.
In the case of `CCOC(=O)c1cnn2c(-c3cccc(NC(=O)c4ccc(Cl)s4)c3)ccnc12` [Example 222, ethyl 7-(3-{[(5-chloro-2-thienyl)carbonyl]amino}phenyl)pyrazolo[1,5-a]pyrimidine-3-carboxylate], the half-maximal inhibitory concentration (IC50) on human B-Raf (setting [1]) is more than 10000 nM. For the same compound, the inhibition at 10 µM on human B-Raf came out at 43%.
The matching figures for `O=C1CN(c2cc3nccc(-c4cccc(NC(=O)c5cccc(C(F)(F)F)c5)c4)n3n2)CCN1` [Example 249, N-{3-[2-(3-oxopiperazin-1-yl)pyrazolo[1,5-a]pyrimidin-7-yl]phenyl}-3-(trifluoromethyl)benzamide]: 471 nM and 76%.
In the case of `CC(=O)c1cccc(-c2cnn3c(-c4cccc(NC(=O)c5cccc(C(F)(F)F)c5)c4)ccnc23)c1` [Example 299, N-{3-[3-(3-acetylphenyl)pyrazolo[1,5-a]pyrimidin-7-yl]phenyl}-3-(trifluoromethyl)benzamide], at human B-Raf, the IC50 is 619 nM and the inhibition at 10 µM amounted to 63%.
In the case of `O=C(Nc1cccc(-c2ccnc3c(-c4ccccn4)cnn23)c1)c1cccc(C(F)(F)F)c1` [Example 59, N-[3-(3-pyridin-2-ylpyrazolo[1,5-a]pyrimidin-7-yl)phenyl]-3-(trifluoromethyl)benzamide], the IC50 on human B-Raf (setting [1]) is more than 10000 nM. In addition, the inhibition at 10 µM on human B-Raf was 37%.
